Laboratory results from publication doi:10.1101/094631v2 (biorxiv, 2017).

Biological target: BIKE kinase domain (biotinylated) (Homo sapiens, UniProt Q9NSY1)
Assay: TR-FRET tracer displacement
Format: binding

Chain of BIKE kinase domain (biotinylated) (Q9NSY1 38-345 limits assumed): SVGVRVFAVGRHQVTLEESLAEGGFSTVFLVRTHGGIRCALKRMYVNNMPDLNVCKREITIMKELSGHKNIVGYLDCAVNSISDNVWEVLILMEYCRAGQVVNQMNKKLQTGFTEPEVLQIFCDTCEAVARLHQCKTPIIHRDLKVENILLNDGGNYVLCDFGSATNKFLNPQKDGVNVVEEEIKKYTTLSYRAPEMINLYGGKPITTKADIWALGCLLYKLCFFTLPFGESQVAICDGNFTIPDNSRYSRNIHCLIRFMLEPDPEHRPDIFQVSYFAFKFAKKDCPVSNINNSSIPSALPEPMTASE

`CC(C)C(=O)Nc1n[nH]c2cc(-c3cccc(NS(=O)(=O)C4CC4)c3)ccc12` [compound 2, N-(6-(3-(cyclopropanesulfonamido)phenyl)-1H-indazol-3-yl)isobutyramide] showed a Ki of 3.1 µM.
